Laboratory results: US20070270591A1, “Iron (II) amino acid chelates with reducing agents attached thereto” (priority 2006, published 2007)

Conditions: no method given; for absorption compared with ferrous sulfate: comparison with ferrous sulfate

Compound: NCC(=O)[O-].NCC(=O)[O-].[Fe+2] [Ferrous bisglycinate]
- absorption relative to ferric trisglycinate (absorbed x times better) (comparison with ferric trisglycinate): 2.3 times
- absorption compared with ferrous sulfate: better than ferrous sulfate

Compound: NCC(=O)O.NCC(=O)O.NCC(=O)O.[Fe] [ferric trisglycinate]
- absorption compared with ferrous sulfate: better than ferrous sulfate
